# Test results: the NIST ThermoML archive (doi:10.1016/j.jct.2008.02.003)
# Numbers after ± are expanded uncertainties.
# Legend:
# [1] = Crystal; DTA
# [2] = Molar enthalpy of transition or fusion; settings: Crystal; DSC
# [3] = molar enthalpy of vaporization or sublimation; settings: 298.15 K, Calvet microcalorimetry
Normal melting temperature [1],Molar enthalpy of transition or fusion [2],molar enthalpy ([3]; Crystal),molar enthalpy ([3]; Liquid),Compound
30.99 ± 0.39 °C,5.27 ± 0.12 kcal/mol,20 ± 0.717 kcal/mol,–,"COc1cccc(Cl)c1Cl [1,2-dichloro-3-methoxybenzene]"
–,–,–,15 ± 0.335 kcal/mol,"COc1ccc(Cl)cc1Cl [2,4-dichloro-1-methoxybenzene]"
–,–,–,13.4 ± 0.335 kcal/mol,"COc1c(Cl)cccc1Cl [2,6-dichloroanisole]"
37.37 ± 0.39 °C,5.66 ± 0.148 kcal/mol,18.9 ± 0.717 kcal/mol,–,"COc1cc(Cl)cc(Cl)c1 [3,5-dichloroanisole]"
